Measured values taken from patent US20110318424A1, “METHODS FOR PROLONGING VIABILITY OF CONE CELLS USING MODULATORS OF THE MAMMALIAN TARGET OF RAPAMYCINE (mTOR)” (PRESIDENT AND FELLOWS OF HARVARD COLLEGE, priority 2008, published 2011).
“Also recorded” adds a separate entry of the source.

Legend:
cones of PDE-β−/− mice = test: Cone survival in PDE-β−/− mice after systemic insulin or streptozotocin treatment (lacZ staining of retinal flat mounts); assay type: in vivo, mouse; conditions: for cone survival: 4 weeks of treatment from PW3, read at PW7, versus uninjected control; for cone survival after prolonged treatment: 7 weeks of treatment from PW3, read at PW10, versus untreated
Description: (§1) Rapamycin, Streptozotocin and Insulin treatments were performed as follows. Rapamycin was diluted to 10 mg/ml in ethanol. The stock was diluted to 0.015 mg/ml in drinking water over a period of 2 weeks. A single intraperitoneal injection of 150 μl (12 mg/ml in 0.1M citric acid, ph4.5) of Streptozotocin was injected at postnatal day (P) 21. Insulin was injected intraperitoneally daily starting at P21. The concentration was increased weekly such that the first week, 10 U/kg body weight, the second 15 U/kg, the third 20 U/kg and fourth 30 U/kg body weight, were injected. In the treatment that lasted 7 weeks 30 U/kg body weight were injected for the remaining 3 weeks. Blood glucose levels were measured by collecting a drop of blood from the tail directly onto a test strip from TrueTrack smart system (CVS pharmacy). Eye bleeds were avoided due to the fact that cell survival in the retina was being assayed.
Quantification of cone survival was performed as follows. The colors of the bright light image were inverted and processed with Imaris software (Bitplane Inc) to calculate the percentage of blue surface area versus the total retinal surface area (see also FIG. 17). A minimum of 8 retinae per treatment, and for the control, were analyzed. P-values were calculated by the student's t-test.

HIF-1α = HIF-1α immunofluorescence on retinal flat mounts of treated PDE-β−/− mice; assay type: in vivo, mouse; conditions: PDE-β−/− mice treated for 4 weeks
Description: as §1, with “Eye bleeds were avoided due to the fact that cell survival in the retina was being assayed.” left out
(§2) Whole mount and section antibody staining were performed as previously (Punzo, C. & Cepko, C. L. (2008) Dev Dyn 237, 1034-42) described with the following modifications. […] Time points analyzed for the rod and cone death kinetics (P: postnatal day; PW: postnatal week): PDE-β−/−: P10-P20 daily, PW3-10 weekly, PW 12, PW15, PW18, PW45; PDE-γ-KO: P10-P20 daily, PW3-PW10 weekly, PW15, PW25, PW45; Rho-KO: PW4-PW8 weekly, PW10, PW11, PW17, PW20, PW25, PW27, PW31, PW34, PW37, PW45, PW55, PW80; P23H: PW5, PW10, PW16, PW25, PW30, PW35, PW40, PW65, PW70, PW75, PW80, PW85.

p*-mTOR in dorsal cones = test: Retinal explant culture of wild type mice, p*-mTOR immunofluorescence; assay type: cell-based, mouse; conditions: wild type retinal explants, 4 hours, absence of glucose, leucine added at 200 μM
Description: Retinal explant cultures: The retina was dissected free from other ocular tissues in DMEM, and then incubated in conditions according to the chart in FIG. 10a. Regular DMEM was at 4.5 g/L glucose, low glucose was at 1 g/L, leucine was added at 200 μM and FCS at 10%. Incubation was performed for 4 h and the retinae were fixed and processed for antibody staining as described below.
as §2, with “modifications. Antibody staining for LAMP-2: Triton was replaced with 0.01% Saponin. Antibody staining for p*-mTOR and p*-S6: PBS was replaced by TBS in every step of the procedure.” for “modifications.”

[1] = test system: photoreceptors (rods and cones) of rd10 mouse; conditions: cited from earlier work

| Compound | cone survival (cones of PDE-β−/− mice) | cone survival after prolonged treatment (cones of PDE-β−/− mice) | also measured |
| --- | --- | --- | --- |
| insulin | improved cone survival; also recorded: prolonged cone survival | did not show any significant improvement of cone survival; also recorded: no significant difference in cone survival | upregulation of HIF-1α in cones (HIF-1α): did not show the upregulation of HIF-1α; also recorded: prevented the upregulation of HIF-1α |
| CC(C)C[C@H](N)C(=O)O [leucine] | – | – | dorsal p*-mTOR with increased leucine (p*-mTOR in dorsal cones): abolished |
| CN(N=O)C(=O)N[C@H]1C(O)O[C@H](CO)[C@@H](O)[C@@H]1O (mixture of isomers) [streptozotocin] | decrease in cone survival | no significant difference in cone survival | – |
| proinsulin | – | – | hyperglycemia ([1]; mice treated with proinsulin): did not develop hyperglycemia; photoreceptor death ([1]; rd10 mouse, constitutive expression, rods and cones): delays photoreceptor death |
